Data: patent publication US4952580A, “Pesticidal polyhaloalkene derivatives” (priority 1988, dated 1990)
Read-outs that look alike come from different tables or passages of the source.

What was measured:
[1] = test system: cucumber or tomato seedling; experiment: Phytotoxicity noted in Soil Mobility test; format: in vivo; set-up: key: *: Some phytotoxicity; conditions: Table 7a, 5% dust, 5 ppm
Text: The ability of nematicidal compounds of the invention to move through nematode-infested soil […] infested soil, and subsequently eluting the soil with 15 cm of water (equivalent to 15 cm of rainfall) into a series of two or more pots of untreated, but nematode-infested, soil. Specifically, the pots were 8 cm diameter plastic pots containing a 10 cm^3 layer of sand over a coarse grade filter paper disc. Sufficient soil was placed over the sand to fill the pots, and a second filter paper disc was placed over the soil. Each test compound-treated pot was nested over a series of two or more pots containing untreated, but nematode-infested soil, also containing sand filter paper discs as described for the treated soil pots. Fifteen cm of water was slowly dripped into the top pots and the pots were allowed to drain for 16-18 hours to remove excess water. The top filter of each pot was then removed and the pots were planted with a cucumber or tomato seedling. […] "Knot Index" and "Percent Control" are as defined in the initial root-knot nematode tests above.

Caenorhabditis elegans = experiment: C. Elegans Nematode Screening Test and Evaluation (in-vitro); conditions: Caenorhabditis elegans
In short: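 Worms (10-15 per well) in buffer with E. coli food, ampicillin and mycostatin; compound added in DMSO, 2-3 replicates per rate. Incubated 5-6 days at 20° C. Population development scored against untreated wells, noting effects such as reduced egg hatch or molting disruption.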

[2] = test system: root-knot nematode (Meloidogyne incognita); experiment: Initial Root-Knot Nematicidal Activity; format: in vivo; conditions: 336 h, read-out: Percent Control; for pest or weed control at 0.078 ppm: Table 2, Application Rate 0.078 ppm; for pest or weed control at 0.156 ppm: Table 2, Application Rate 0.156 ppm; for pest or weed control at 0.312 ppm: Table 2, Application Rate 0.312 ppm; for pest or weed control at 2.5 ppm: Table 2, Application Rate 2.5 ppm
In short: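 Compound incorporated into Meloidogyne incognita-infested soil at 10 ppm to 0.078 ppm, then planted with tomato or cucumber seedlings. Root galling scored two weeks after planting as a knot index and converted to percent control, given as averages.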

stunt nematode = experiment: Stunt Nematode Test; format: in vivo
lesion nematode = experiment: Lesion Nematode Test; format: in vivo; conditions: read-out: Percent Control
In short: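 Run as the stunt nematode test but on pea seedlings; compounds applied as dust formulations (initial and residual activity) or acetone/water formulations (systemic activity), with untreated samples as reference. Percent control derived by formula.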

root-knot nematode [3] = experiment: Systemic Activity (basipetal, foliar spray) against root-knot nematode; format: in vivo, Meloidogyne incognita; conditions: 336 h, read-out: Percent Control; for pest or weed control at 2000 ppm: Table 8, rate 2000 ppm
In short: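 Tomato plants at 4-6 true leaves were foliar-sprayed with compound in water/acetone, soil covered, then kept 3 days at 25° C before soil inoculation with nematodes. After about two weeks, root galling versus untreated controls was scored as Knot Index and Percent Control.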

root-knot nematode [4] = experiment: Residual Root-Knot Nematicidal Activity; format: in vivo, Meloidogyne incognita; conditions: Table 3a, 5% dust, 5 ppm, read-out: Percent Control
In short: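 Soil received 5% dust formulation at 5 and 10 ppm test compound and was held in a greenhouse, then infested with root-knot nematode eggs and larvae at 1, 2 and 4 weeks post-treatment. Cucumber or tomato seedlings were planted and scored about two weeks after infestation for Knot Index and Percent Control.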

cyst nematode = experiment: Cyst Nematode Test; format: in vivo; conditions: Table 6; rate 5 ppm; read-out: Percent Control
Experimental: Compounds of this invention were tested as follows for nematicidal and anthelmintic activity as dust formulations (initial and residual activity) and as acetone/water formulations (systemic activity). The formulations are described above.
The procedures was substantially the same as described in the stunt nematode test except soybean seedlings were used. "Percent Control" (Table 6 appended) is as defined in the stunt nematode test results.

root-knot nematode [5] = experiment: Soil Mobility against root-knot nematode; format: in vivo, Meloidogyne incognita; conditions: 336 h, Table 7a, 5% dust, 5 ppm, read-out: Percent Control
In short: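 Soil mobility of the nematicidal test material was evaluated by placing treated, nematode-infested soil in 8 cm plastic pots stacked above two or more pots of untreated infested soil, each containing a 10 cm^3 sand layer and filter paper discs. Fifteen cm of water was dripped through, pots drained 16-18 hours, then were planted with cucumber or tomato seedlings and scored for Percent Control.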

corn seedling = experiment: Phytotoxicity noted in Stunt Nematode Test; format: in vivo; set-up: key: *: Some phytotoxicity; conditions: Table 4a; rate 5 ppm
Text: The procedure was substantially the same as in the initial root-knot nematode tests described above except that rates of application of formulated compound were 2.5 and 5 ppm in soil containing a corn seedling, with subsequent inoculation of the soil with combined larvae and adult stunt nematodes. The samples were evaulated approximately four weeks after infestation. The results (Tables 4 and 4a appended) indicate good control at the test application rates as compared with untreated samples where no control was observed. "Percent control" means the difference between average population counts between untreated and treated samples, divided by average population count of untreated sample, multiplied by 100.

[6] = Table 2, Application Rate 0.625 ppm
[7] = 672 h, Table 4a; rate 5 ppm; read-out: Percent Control
[8] = 168 h, inoculation 1 week post-treatment
[9] = 336 h, inoculation 2 weeks post-treatment
[10] = 672 h, inoculation 4 weeks post-treatment
[11] = Table 2, Application Rate 1.25 ppm

SMILES	Some phytotoxicity ([1]; TOP container)	pest or weed control at 0.078 ppm [2] [%]	pest or weed control at 0.156 ppm [2] [%]	pest or weed control at 0.312 ppm [2] [%]	pest or weed control at 0.625 ppm [2, 6] [%]	pest or weed control at 2.5 ppm [2] [%]	pest or weed control at 5 ppm (stunt nematode; [7]) [%]	pest or weed control at 2.5 ppm (lesion nematode; Table 5, rate 2.5 ppm) [%]	pest or weed control at 5 ppm (root-knot nematode [4]; [8]) [%]	pest or weed control at 5 ppm (root-knot nematode [4]; [9]) [%]	pest or weed control at 5 ppm (root-knot nematode [4]; [10]) [%]	pest or weed control at 5 ppm (cyst nematode) [%]	pest or weed control at 1.25 ppm [2, 11] [%]	pest or weed control at 5 ppm (root-knot nematode [5]; BOTTOM container) [%]	pest or weed control at 5 ppm (root-knot nematode [5]; MIDDLE container) [%]	pest or weed control at 5 ppm (root-knot nematode [5]; TOP container) [%]	also measured
FC(F)=C(F)CCSc1nnc(-c2cccc(Cl)c2)o1 [Compound 48, 2-(3-chlorophenyl)-5-(3,4,4-trifluoro-3-butenylthio)-1,3,4-oxadiazole]	*	6	38	64	78	98	82	85	97	97	69	86	–	–	–	–	inhibition at 5 ppm (Caenorhabditis elegans; Table 9 screen, 5 ppm, read-out: Percent Inhibition of Reproduction): 100%; mortality at 5 ppm (Caenorhabditis elegans; Table 9 screen, 5 ppm, read-out: Percent Mortality): 88%; mortality at 5 ppm (Caenorhabditis elegans; Table 10 evaluation, 5 ppm, read-out: Percent Mortality): 100%; inhibition at 1.25 ppm (Caenorhabditis elegans; Table 10 evaluation, 1.25 ppm, read-out: Percent Inhibition of Reproduction): 17%; mortality at 1.25 ppm (Caenorhabditis elegans; Table 10 evaluation, 1.25 ppm, read-out: Percent Mortality): 0%; inhibition at 2.5 ppm (Caenorhabditis elegans; Table 10 evaluation, 2.5 ppm, read-out: Percent Inhibition of Reproduction): 25%; mortality at 2.5 ppm (Caenorhabditis elegans; Table 10 evaluation, 2.5 ppm, read-out: Percent Mortality): 0%; pest or weed control at 0.625 ppm [2]: 87%; pest or weed control at 1.25 ppm [2]: 95%; pest or weed control at 2500 ppm (root-knot nematode [3]; Table 8, rate 2500 ppm): 33%; pest or weed control at 2000 ppm (root-knot nematode [3]; foliar): 50%
CCCc1nnc(SCCC(F)=C(F)F)o1 [Compound 41, 2-propyl-5-(3,4,4-trifluoro-3-butenylthio)-1,3,4-oxadiazole]	*	31	84	–	98	100	29	64	97	63	6	0	100	8	95	97	Some phytotoxicity ([1]; MIDDLE container): *; pest or weed control at 2000 ppm (root-knot nematode [3]): 17%
FC(F)=C(F)CCSc1nnc(Cc2ccccc2)o1 [Compound 42, 2-phenylmethyl-5-(3,4,4-trifluoro-3-butenylthio)-1,3,4-oxadiazole]	–	38	50	86	98	100	76	82	99	97	0	30	98	100	100	100	pest or weed control at 5 ppm (stunt nematode; 672 h; Table 4a; rate 5 ppm; read-out: Percent Control): 33%; pest or weed control at 2.5 ppm (lesion nematode): 73%; Some phytotoxicity (corn seedling): *
